How the values were obtained:
[1] = system: human umbilical-vein endothelial cells (HUVEC); experiment: Tube Formation Assay (TFA) Test, HUVEC in collagen gel; type: cell-based; conditions: Homo sapiens, HUVEC, Tables 75-83; 0.32 mM sample solution; method as for Compounds 1 through 60; read-out: TFA Inhibition rate (%)
Summary of the method: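 HUVEC (7th subculture, 1×10^5 cells/ml) attached to collagen gel for 2 h at 37 °C, given sample and overlaid with collagen, then cultured 20 h at 37 °C, 5% CO2 in M-199 with 20% FCS, 30 ng/ml b-FGF and 0.1 μM PMA. Tube length measured by image analysis; % inhibition relative to positive and negative controls.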

[2] = system: HUFEC; experiment: Cell Migration Assay (CMA) Test, inhibitory rate with control (-) correction; type: cell-based, human; conditions: Homo sapiens, 24 h, 125 μl of 0.32 mM sample solution in 4.0 ml medium, 80% or more = remarkable
Summary of the method: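 Confluent HUFEC monolayers were scratch-wounded, then cultured 24 h at 37 °C, 5% CO2 in M199 (2+) medium with compound added as 125 μl of a 0.32 mM solution (3.2% DMSO) per 4 ml. Giemsa-stained cells migrating into 1 mm×1 mm blocks counted; inhibition % calculated relative to control (+) and control (−) wells.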

Structure (SMILES) | inhibition at 320 µM (stock) [1] | inhibition at 320 µM (stock) [2]
CNC(=O)O[C@@H]1OC=C(C(N)=O)[C@H]2C[C@@H]3O[C@]3(C)[C@@H]12 [I-61] | 18.9% | 82.1%
CNC(=O)O[C@@H]1OC=C(C)[C@H]2CC[C@H](C)[C@@H]12 [I-278] | 20.2% | 125%
CNC(=O)O[C@@H]1OC=C(C)[C@H]2CC[C@@H](C)[C@@H]12 [I-283] | 11% | 9.1%
COC(=O)C1=CO[C@@H](OC(=O)NCCc2ccc(OC)cc2)[C@@H]2C(C)=CC[C@H]12 [I-98] | 3.8% | 2.7%
COC(=O)C1=CO[C@@H](OC(=O)N2CCC(Cc3ccccc3)CC2)[C@H]2[C@@H]1CC[C@@H]2C [I-199] | 6% | 25%
COC(=O)C1=CO[C@@H](OC(=O)Nc2ccc(C)cc2)[C@H]2[C@@H]1CC[C@@H]2C [I-270] | 5.9% | 28.7%
COC(=O)C1=CO[C@@H](OC(=O)NCc2ccc(OC)cc2)[C@@H]2C(C)=CC[C@H]12 [I-83] | 21.4% | 50%
CNC(=O)O[C@@H]1OC=C(C(=O)O)[C@H]2CC[C@@H](C)[C@@H]12 [I-281] | 31.1% | 27.9%
COC(=O)C1=CO[C@@H](OC(=O)Nc2ccc(OC)cc2)[C@@H]2C(C)=CC[C@H]12 [I-161] | 8.2% | 14.4%
COC(=O)C1=CO[C@@H](OC(=O)NCCSCc2ccccc2)[C@@H]2C(C)=CC[C@H]12 [I-150] | 32.3% | 5.4%
COC(=O)C1=CO[C@@H](OC(=O)NCCCCCO)[C@H]2[C@@H]1CC[C@@H]2C [I-209] | 4.9% | 8.9%
COC(=O)C1=CO[C@@H](OC(=O)NCCCc2ccccc2)[C@H]2[C@@H]1CC[C@@H]2C [I-217] | 7.2% | 9.4%
COC(=O)C1=CO[C@@H](OC(=O)NCc2ccc(Br)cc2)[C@H]2[C@@H]1CC[C@@H]2C [I-245] | 6.3% | 27.3%
O=C(C1=COC[C@@H]2C(CO)=CC[C@H]12)N1CCN(CCO)CC1 [I-301] | 15.9% | 56%
COC(=O)C1=CO[C@@H](OC(=O)Nc2ccc(Cl)cc2)[C@H]2[C@@H]1CC[C@@H]2C [I-260] | 2.5% | 8.9%
COC(=O)C1=CO[C@@H](OC(=O)N2CCc3ccccc3C2)[C@H]2[C@@H]1CC[C@@H]2C [I-225] | 5.5% | 25%
COC(=O)C1=CO[C@@H](OC(=O)NCc2ccco2)[C@@H]2C(C)=CC[C@H]12 [I-110] | 4.6% | 7.8%
COC(=O)C1=CO[C@@H](OC(=O)N2CCOCC2)[C@@H]2C(C)=CC[C@H]12 [I-85] | 15.6% | 31%
COC(=O)C1=CO[C@@H](OC(=O)N2CCN(c3cccc(C(F)(F)F)c3)CC2)[C@H]2[C@@H]1CC[C@@H]2C [I-235] | 9.3% | 6.5%
COC(=O)C1=CO[C@@H](OC(=O)NCc2ccccc2F)[C@@H]2C(C)=CC[C@H]12 [I-126] | 4% | 6.5%
COC(=O)C1=CO[C@@H](OC(=O)Nc2ccc([N+](=O)[O-])cc2)[C@H]2[C@@H]1CC[C@@H]2C [I-269] | 8.3% | 19.5%
COC(=O)C1=CO[C@@H](OC(=O)NCc2ccc3c(c2)OCO3)[C@H]2[C@@H]1CC[C@@H]2C [I-234] | 7.3% | 7.3%
CC1=CC[C@@H]2C(C(=O)O)=CO[C@@H](OC(=O)Nc3ccc(F)cc3F)[C@H]12 [I-308] | 23.2% | 32.1%
COC(=O)C1=CO[C@@H](OC(=O)N(C)CC2OCCO2)[C@@H]2C(C)=CC[C@H]12 [I-93] | 2.4% | 5.8%
COC(=O)C1=CO[C@@H](OC(=O)N2CCN(c3ccccc3F)CC2)[C@H]2[C@@H]1CC[C@@H]2C [I-251] | 7.9% | 8.7%
COC(=O)C1=CO[C@@H](OC(=O)NCCc2cccs2)[C@H]2[C@@H]1CC[C@@H]2C [I-197] | 4.5% | 20%
COC(=O)C1=CO[C@@H](OC(=O)N2CC=C(c3ccccc3)CC2)[C@@H]2C(C)=CC[C@H]12 [I-140] | 5.2% | 3.3%
COC(=O)C1=CO[C@@H](OC(=O)NCC(OC)OC)[C@H]2[C@@H]1CC[C@@H]2C [I-201] | 18.5% | 8.5%

Structure (SMILES) | inhibition at 320 µM (stock) [1] | inhibition at 320 µM (stock) [2]
COC(=O)C1=CO[C@@H](OC(=O)Nc2cccc(C#N)c2)[C@H]2[C@@H]1CC[C@@H]2C [I-267] | 5.8% | 14.9%
COC(=O)C1=CO[C@@H](OC(=O)NC(=O)CCl)[C@@H]2C(C)=CC[C@H]12 [I-152] | 51% | 33.7%
CCOc1ccccc1N1CCN(C(=O)O[C@@H]2OC=C(C(=O)OC)[C@H]3CC=C(C)[C@@H]23)CC1 [I-141] | 23.1% | 12.5%
COC(=O)C1=CO[C@@H](OC(=O)N(C)CCN(C)C)[C@@H]2C(C)=CC[C@H]12 [I-86] | 5.2% | 9.9%
COC(=O)C1=CO[C@H](OC(=S)N(C)C)[C@H]2[C@@H]1C[C@@H]1O[C@]21C [I-285] | 7.7% | 6.5%
COC(=O)C1=CO[C@@H](OC(=O)NC(C)C)[C@@H]2C(C)=CC[C@H]12 [I-155] | 45.7% | 19.9%
CNC(=O)O[C@@H]1OC=C(C(=O)N2CCN(CCO)CC2)[C@H]2CC[C@@H](C)[C@@H]12 [I-282] | 6% | 5.8%
CNC(=O)O[C@@H]1OC=C(C(=O)OC)[C@H]2CC[C@H](C)[C@@H]12 [I-254] | 4.6% | 4.7%
CCOC(=O)c1ccc(NC(=O)O[C@@H]2OC=C(C(=O)OC)[C@H]3CC=C(C)[C@@H]23)cc1 [I-167] | 5.1% | 4.1%
CCCCCCNC(=O)O[C@@H]1OC=C(C(=O)OC)[C@H]2CC[C@H](C)[C@@H]12 [I-175] | 7.5% | 19.5%
COC(=O)C1=CO[C@@H](OC(=O)NCc2ccc(F)cc2F)[C@H]2[C@@H]1CC[C@@H]2C [I-195] | 3.7% | 15.7%
COC(=O)C1=CO[C@@H](OC(=O)NC2CC2)[C@H]2[C@@H]1CC[C@@H]2C [I-218] | 5.4% | 25%
COC(=O)C1=CO[C@@H](OC(=O)NCCN2CCCCC2)[C@@H]2C(C)=CC[C@H]12 [I-118] | 5.1% | 31.3%
COC(=O)C1=CO[C@@H](OC(=O)Nc2ccc(Br)cc2)[C@@H]2C(C)=CC[C@H]12 [I-159] | 9.8% | 39.5%
CNC(=O)O[C@@H]1OC=C(C(=O)OC)[C@H]2CC=C(CO)C12 (stereo in doubt) [I-315, (1S,4aS,7aR)-7-(hydroxy-methyl)-1-(methylcarbamoyloxy)-1,4a,5,7a-tetrahydrocyclopenta [c] pyrane-4-carboxylic acid methylester] | 8.6% | 36.4%
COC(=O)C1=CO[C@@H](OC(=O)Nc2ccc(Cl)cc2C(F)(F)F)[C@@H]2C(C)=CC[C@H]12 [I-164] | 2.5% | 5.9%
COC(=O)C1=CO[C@@H](OC(=O)NCCOCCO)[C@H]2[C@@H]1CC[C@@H]2C [I-202] | 26.2% | 6.5%
COC(=O)C1=CO[C@@H](OC(=O)NC2CCCCCC2)[C@@H]2C(C)=CC[C@H]12 [I-103] | 8.3% | 5.1%
CCCN(C)C(=O)O[C@@H]1OC=C(C(=O)OC)[C@H]2CC=C(C)[C@@H]12 [I-90] | 22.8% | 4.3%
COC(=O)C1=CO[C@@H](OC(=O)NCCc2ccc(O)cc2)[C@H]2[C@@H]1CC[C@@H]2C [I-206] | 14.2% | 33.6%
COC(=O)C1=CO[C@@H](OC(=O)N2CCOCC2)[C@H]2[C@@H]1CC[C@@H]2C [I-188] | 10.2% | 7.1%
COC(=O)C1=COC[C@H]2[C@@H]1C[C@@H]1O[C@@]12CO [I-289] | 17.1% | 9.4%
COC(=O)C1=CO[C@@H](OC(=O)NCc2ccc(OC(F)(F)F)cc2)[C@H]2[C@@H]1CC[C@@H]2C [I-211] | 20.4% | 32.1%
COC(=O)C1=CO[C@@H](OC(=O)N(C)C)[C@H]2[C@@H]1CC[C@@H]2C [I-239] | 5.7% | 7.8%
COC(=O)C1=CO[C@@H](OC(=O)Nc2cccc(C#N)c2)[C@@H]2C(C)=CC[C@H]12 [I-166] | 9.1% | 8.7%
CCC(CC)NC(=O)O[C@@H]1OC=C(C(=O)OC)[C@H]2CC[C@H](C)[C@@H]12 [I-207] | 4.4% | 5.5%
CCOC(=O)CCCNC(=O)O[C@@H]1OC=C(C(=O)OC)[C@H]2CC[C@H](C)[C@@H]12 [I-237] | 7.8% | 6.9%
